Measured values from patent US12208091B2, “Compounds for treatment of eye diseases associated with excessive vascularisation” (Active Biotech AB, priority 2019, dated 2025).

Experiments:
[1] = system: Human retinal microvascular endothelial cells (HRMECs); assay: LPS-activated microglia-induced HRMEC tube formation (co-culture); type: cell-based
Protocol: The following experimental groups were included in the study: • Group 1: […] Sulforaphane (10 μM, positive control, anti-angiogenic effects) • Group 3: Aflibercept (“Eylea” 40 μg/ml, positive control, partial anti-angiogenic effects) • Group 4: […] Human retinal microvascular endothelial cells (HRMECs) were purchased from Neuromics (Cat #HEC09, Lot #2872) and cultured according to manufacturer's instructions in Endo-Growth media (Cat #EKG001, Lot #EKG0011902269) supplemented with Endothelial Growth Factor (Cat #EKG001, Lot #EGK00125) on AlphaBiocoat coated T25 flasks at 37° C. 5% CO2. […] Human microglia were seeded onto PLL coated cell culture inserts (Sarstedt, Cat #83.3932.040) at 103 000 cells/cm^2. […] The method for co-cultures of microglia and HRMECs was modified from protocol described by Ding et al. 2018 (Ding X, Gu R, Zhang M, Ren H, Shu Q, Xu G, Wu H. Microglia enhanced the angiogenesis, migration and proliferation of co-cultured RMECs. […] PMID: 30223824; PMCID: PMC6142340) and Ji Cho et al. 2019 (Ji Cho M, Yoon […], Park J, Lee J, Park J G, Cho Y L, Hun Kim J, Jang H, Park Y J, Lee S H, Min J K. Oxidative stress-mediated TXNIP loss causes RPE dysfunction. […] PMID: 31615975; PMCID: PMC6802648). Microglia was activated with LPS (100 ng/ml) in microglia complete growth media without FBS with simultaneous treatment of freshly prepared study compounds, Eylea and vehicle for 24 hours. HRMECs were incubated in basal Endo-Growth media for 24 hours before co-culturing. […] Media in microglia inserts containing LPS was replaced to corresponding freshly prepared study compounds, aflibercept and sulforaphane in basal Endo-Growth media. […] 5% CO2, stained with calcein-AM (5 μM) for 30 min and imaged using a fluorescence microscope (Leica Thunder 3D Tissue Imager, Leica Microsystems). Images were analyzed using the AngioTool software (Zudaire E, Gambardella L, Kurcz […] Computational Tool for Quantitative Analysis of Vascular Networks. PLOS ONE 6(11): e27385. https://doi.org/10.1371/journal.pone.0027385) for ImageJ (NIH public domain). Total tube area, tube length, density, lacunarity, and branching index (number of junctions and endpoints) were quantified. Images were analyzed using AngioTool software (NIH, Bethesda, MD; available in the public domain) for the following readouts: average vessels length, total vessels length, vessel area, vessels percentage area, total number of junctions, density of junctions, total number of endpoints, and mean lacunarity. […] Raw data for each of the readouts was plotted and analyzed by ordinary one-way ANOVA with Dunnett's multiple comparisons post-hoc test. […] Effect size data were analyzed by non-parametric Kruskal-Wallis test, with Dunn's multiple comparisons post-hoc test.

[2] = system: Human retinal microvascular endothelial cells (HRMECs); assay: Tube formation assay, combination with aflibercept (contemplated); type: cell-based; conditions: 0.01 and 0.1 μM combined with Aflibercept (30 nM)
Description: Microglia, especially activated microglia play important roles in angiogenesis and maintenance of vascular function haemostasis in the retinal microvasculature (Ding et al 2018). It is contemplated that a co-culture of human retinal microvasculature endothelial cells (HRMEC's) and human microglia from brain can be used to assess the effects of a compound of the disclosure, such as laquinimod, tasquinimod, ABR-215174 or ABR-215691, on neovascularization. A method such as the one outlined below may be used.
This study may be carried out substantially as outlined in Example 3.
Tube formation assay is performed using 24-well plate wells coated with Matrigel or in 96-wells as described Ding et al. 2018 (Ding et al. BMC Ophthalmology (2018) 18:249): A 96-well plate is coated with 50 μL/well Matrigel at 37° C. for 30 min. After co-culturing with microglia for 24 h, HRMECs are seeded on the Matrigel at 1.5×10^4 cells/well in 100 μL medium. After a period of time, for example 4 h, tube formation is observed and photographed with a microscope (Leica Microsystems). Images are analysed using the Angiotool plugin (Zudaire et al., 2011, PLoS one, 6, 11, e27385) for ImageJ (NIH public domain). Total tube area, tube length, density, lacunarity, and branching index (number of junctions and endpoints) are quantified.

[3] = system: choroidal neovascularisation; assay: Laser-induced choroidal neovascularisation rat model, fluorescein angiography leakage score; type: in vivo, Brown Norway pigmented rats; set-up: key to Mean score of fluorescein leakage: 0 = no leakage, 1 = slight, 2 = moderate, 3 = strongly stained; conditions: Per os 0.5 mg/kg 1×/day
Protocol: Forty-eight (48) Brown Norway pigmented rats were divided into six (6) groups of eight (8) animals. Choroidal neovascularization was induced using a 532 nm argon laser photocoagulator (six (6) 75 μm-sized spots at 150 mW for 0.1 sec duration) in the right eyes on Day 0. The test item was administered three times a day by instillation or twice a day by oral administration from Day 0 (DO) just after ChNV induction to Day 21 (last day of the study). Control item (vehicle) was instilled three times a day and the reference item (Dexamethasone in olive oil) was administered by daily oral administration from the Day 0 just after induction of neovascularization to Day 21. Fundus neovessels were evaluated in the right eyes on Days 14 and 21 using Heidelberg's Retinal Angiograph (HRA). Lesion size was determined on choroid flatmounts labelled with Isolectin-B4 at the end of the in vivo period.
On Day 0, animals were anesthetized by an intramuscular injection of a mix of xylazine (5 mg/kg) and ketamine (25 mg/kg). Pupils from the right eyes were dilated by instillation of one drop of 0.5% tropicamide. Then, six (6) choroidal burns (75 μm spot size) were done through a slit-lamp, with a contact lens, around the optic disc, between the main vessel branches using an argon laser photocoagulator (532 nm; 150 mW; 0.1 sec duration). Production of a bubble at the time of laser treatment confirmed the rupture of Bruch's membrane.
Test, control, or reference items were administered topically by instillation (10 μL each) or by oral route (1 mL/kg) from Day 0 (just after the induction) to Day 21 (end of the study). Test and control items were administered three times a day (for instillation) and two times a day (for oral administration). Reference item was administered once a day by oral route.
Fluorescein angiography was performed on Days 14 and 21 using an HRA (Heidelberg's Retinal Angiograph). After anaesthesia (same mix used for ChNV induction) and pupillary dilation, 250 μL/100 g (body weight) of a 10% sodium fluorescein was injected subcutaneously using a 26-G insulin syringe, and fluorescein photos were recorded 10 minutes after dye injection.
The leakage of fluorescein on the angiograms were evaluated by two examiners in a masked fashion and graded as follows: • Score 0, no leakage; • Score 1, slightly stained; • Score 2, moderately stained; • Score 3, strongly stained.
Statistical analysis, using Mann-Whitney U test or appropriate statistical model, were performed on the scoring of lesions visualized by HRA from each animal and on the scoring of the flat mounted preparations.
The grading of fluorescein angiographies (FA) was based on the fluorescence intensity for each lesion. For each treatment group, results were expressed as the group mean score per time-point. Table 1 summarises the evaluation of FA recorded at 10 min on Days 14 and 21 (n=8 animals per group, right eyes). A statistical analysis was performed on the median of the individual intensity scores, using a Kruskall-Wallis test followed by a Mann & Whitney U multiple comparison test, which was used to compare each test, control or reference group.

[4] = Animal body weight in the ChNV rat study; type: in vivo, Brown Norway pigmented rats; conditions: during the study, oral 0.5 mg/kg 1×/day
Protocol: The body weight of all animals was recorded before the start of the study, then once every week.
Animal body weights were recorded before induction and treatment (baseline) and then once a week. Animal body weights were within the normal range at the baseline: 166-202 g (min−max, n=48). On Day 21, no significant difference between test and control items was observed. […] This loss is an expected adverse effect of orally dosed corticosteroid.

[5] = system: bFGF induced corneal vascularisation; assay: bFGF induced corneal vascularisation (pellet in corneal pocket), area of neovascularisation; type: in vivo, C57BL/6 mice
[6] = system: metastatic chemo naïve prostate cancer (mCRPC); conditions: randomized placebo controlled Phase 2 and 3 studies; cited from earlier work
[7] = system: VEGF induced corneal vascularisation; assay: VEGF induced corneal vascularisation (pellet in corneal pocket), area of neovascularisation; type: in vivo, C57BL/6 mice; set-up: Area of vasc.: unit not given beside the values
Protocol: The area of the neovascularisation can be measured using the formula: Area=0.2·VL·CH·π wherein vessel length (VL) and continuous circumferential zone (in clock hours=CH) are measured as defined in FIG. 1. Treatment with Laquinimod of VEGF Induced Corneal Vascularisation
Hydron pellets for induction of vascularisation were prepared from stimulant (VEGF) and binding agent (sucralfate).
53 CR female C57BL/6 mice aged 6 to 8 weeks were prepared for surgery by anesthetising with 90 mg/kg of pentobarbital, ip. Corneal vascularisation was induced by placement of a pellet in a corneal pocket cut in one eye. Signs for ocular irritation or infection were carefully monitored.
[…] Vascularisation was measured on day 8.

[8] = group 2: 5 mg/kg po qd ×5, measured day 6
[9] = group 2: 5 mg/kg ip qd ×7, measured day 8

In the case of `Cn1c(=O)c(C(=O)Nc2ccccc2)c(O)c2c(Cl)cccc21` [ABR-215174, 5-chloro-4-hydroxy-1-methyl-2-oxo-1,2-dihydroquinoline-3-carboxylic acid phenylamide], the “Normalized effect size on average vessel length” value (shortened to “Normalized effect size”) ([1]; 0.1 μM, normalised to vehicle 0%, sulforaphane 100%) is reported as 88.2% and the “effect on tube formation of combination compared to each compound used as monotherapy” value [2] is reported as “clear additive effect”.
For `C[C@@H]1C[C@H]2[C@@H]3CCC4=CC(=O)C=C[C@]4(C)[C@@]3(F)[C@@H](O)C[C@]2(C)[C@@]1(O)C(=O)CO` [Dexamethasone, reference compound], the “% of reduction vs respective vehicle” value ([3]; Day 14) was 71%, the “Mean score of fluorescein leakage” value ([3]; Day 14) was 0.7 and the “% of reduction vs respective vehicle” value ([3]; Day 21) was 73%. The “Mean score of fluorescein leakage” value ([3]; Day 21) was 0.8 and the body weight loss [4] was 21%.
With `CCN(CC)CCNC(=O)c1c(C)[nH]c(/C=C2\C(=O)Nc3ccc(F)cc32)c1C` [Sutent, reference compound] the “Inhibition of corneal vascularisation induced by bFGF” value ([5]; 40 mg/kg) was 80%, the Area of vasc. [5, 8] was 0.72 ± 0.08 and the “Area percent of positive control” value [5, 8] was 20%.
With `C[S+]([O-])CCCCN=C=S` (stereo not shown) [sulforaphane, reference compound] the “Normalized effect size” value ([1]; 10 μM, positive control, set to 100% by normalisation (vehicle 0%)) was 100%.
In the case of `COc1cccc2c1c(O)c(C(=O)N(C)c1ccc(C(F)(F)F)cc1)c(=O)n2C` [tasquinimod], the “Disease progression (primary endpoint)” value [6] is listed as “significantly delayed”.
In the case of “Avastin: Bevacizumab (Avastin) is an IgG1-based antibody which binds VEGF-A; positive control”, the “Inhibition of corneal vascularisation induced by VEGF” value ([7]; 5 mg/kg (reference)) is reported as 100%, the Area of vasc. [7, 9] is reported as 0.00 ± 0.00 and the “Area percent of positive control” value [7, 9] is reported as 0%.
With “Eylea: recombinant protein aflibercept (Eylea) with affinity for VEGF-A, VEGF-B, and PGF” the “Normalized effect size” value ([1]; 40 μg/ml, normalised to vehicle 0%, sulforaphane 100%) was 18%.
